Measured values taken from US20230398090A1, “METHOD OF TREATING CORONAVIRUS INFECTION BY ADMINISTRATION OF ETHYL MERCURY OR THIOL DERIVATIVE THEREOF” (BEECH TREE LABS, INC., priority 2020, published 2023).
Like-named read-outs stand apart in the source and are kept apart here.

Tests used:
coronavirus (SARS-CoV-2) = conditions: for time until all of the subject's symptoms resolved after initial treatment: 200 ng sublingual every 15 minutes for one hour, then hourly until bedtime
[1] = tested on: pro-inflammatory cytokines; anti-inflammatory genes; conditions: genomic studies, no details given
[2] = Example 4: person, after less than 48 hours of therapy

With `C[CH2][Hg][S]c1ccccc1C(=O)[O-].[Na+]` [thimerosal] the “time until all of the subject's symptoms resolved after initial treatment” value (coronavirus (SARS-CoV-2); Example 1: person, positive SARS-CoV-2 test, fever 104° F., shortness of breath, cough) was 20 to 24 h, the “time until all of the subject's symptoms resolved after initial treatment” value (coronavirus (SARS-CoV-2); Example 2: person, symptoms of SARS-CoV-2 infection (fever 103° F., lethargy, shortness of breath, achiness)) was at most 24 h and the weakness (coronavirus (SARS-CoV-2); Example 3: person, 72 hours after initial treatment) was “only partially improved”. For the same compound, the “time until all of the subject's symptoms resolved after initial treatment (with the exception of weakness)” value (coronavirus (SARS-CoV-2); Example 3: person, presumptive SARS-CoV-2 (fever, weakness, shortness of breath, cough), 200 ng sublingual, day 1 schedule, then six times daily on days two and three) was 72 h, the chest pain (coronavirus (SARS-CoV-2); [2]) was “not completely eliminated” and the “subject-reported energy, appetite and taste” value (coronavirus (SARS-CoV-2); [2]) was “increased energy, increased appetite and improved ability to taste”. For the same compound, the “time of therapy until subject reported diminution of all symptoms” value (coronavirus (SARS-CoV-2); Example 4: person, positive SARS-CoV-2 test (cough, mild fever, aching, decreased energy, stomach pain), 200 ng sublingual, day 1 schedule, then six times daily on day two) was “less than 48 hours”, the “effect on other anti-inflammatory genes” value [1] was “up-regulating” and the “effect on several pro-inflammatory cytokines” value [1] was “down-regulates”.
